Experimental data published in patent publication US20200024278A1, “COMPOSITION COMPRISING ANTIBIOTIC COMPOUND AND AN HETEROCYCLIC COMPOUND AND THEIR USE IN PREVENTING OR TREATING BACTERIAL INFECTIONS” (MUTABILIS, priority 2016, published 2020).
Like-named read-outs stand apart in the source and are kept apart here.

Columns and labels:
Experiment in all cases: MIC, broth microdilution (CLSI), substance alone or ATB combined with compound at 4 or 8 μg/mL
SPN 49619 = assay type: cell-based, S. pneumoniae; conditions: SPN 49619; for MIC: Streptococcus pneumoniae
Protocol: (§1) Compounds of the present invention were assessed against genotyped bacterial strains alone or in combination with an antibacterial. In the assays, MICs of said compounds or combination of antibiotics with fixed concentrations of said compounds (4 or 8 μg/mL) were determined by the broth microdilution method according to the Clinical Laboratory Standards Institute (CLSI-M7-A7). Briefly, compounds alone according to the invention were prepared in DMSO and spotted (2 μL each) on sterile polystyrene plates (Corning, 3788). Combinations of compounds and antibiotics dilutions were prepared in DMSO and spotted (1 μL each) on sterile polystyrene plates (Corning, 3788). Log phase bacterial suspensions were adjusted to a final density of 5·10^5 CFU/mL in cation-adjusted Mueller-Hinton broth (ca-MHB; Becton-Dickinson and Company) and added to each well (98 μL). Assays including Fosfomycin were supplemented with 25 μg/ml of Glucose-6-phosphate. Microplates were incubated for 16-20 h at 35° C. in ambient air. The MIC of the compounds was defined as the lowest concentration of said compounds that prevented bacterial growth as read by visual inspection. The MIC of ATB at each compound concentration was defined as the lowest concentration of ATB that prevented bacterial growth as read by visual inspection.

ECO 190317 = assay type: cell-based, E. coli; conditions: ECO 190317
Protocol: as §1

PAE 105250 = assay type: cell-based, P. aeruginosa; conditions: PAE 105250; for MIC: Pseudomonas aeruginosa
Protocol: as §1

SAU 29213 = assay type: cell-based, S. aureus; conditions: SAU 29213
Protocol: as §1

ECO UFR39 = assay type: cell-based, E. coli; conditions: ECO UFR39
Protocol: as §1

PAE UFR90 = assay type: cell-based, P. aeruginosa; conditions: PAE UFR90
Protocol: as §1

PAE UFR48 = assay type: cell-based, P. aeruginosa; conditions: PAE UFR48
Protocol: as §1

ECL P99 = assay type: cell-based, E. cloacae; conditions: ECL P99
Protocol: as §1

[1] = antibiotic alone, read-out: MIC ATB alone

## C[C@H]1[C@H](NC(=O)/C(=N\OC(C)(C)C(=O)O)c2csc(N)n2)C(=O)N1S(=O)(=O)O [ATM, Aztreonam, reference compound]
SPN 49619; [1]
  MIC: > 64 µg/mL
SPN 49619; substance alone, read-out: MIC
  MIC: > 64 µg/mL
ECO 190317; Escherichia coli, antibiotic alone, read-out: MIC ATB alone
  MIC: 128 µg/mL
PAE 105250; [1]
  MIC: 8 µg/mL
PAE 105250; substance alone, read-out: MIC
  MIC: 8 µg/mL

## CCC[C@@H]1C[C@@H](C(=O)N[C@@H]([C@H]2O[C@H](SC)[C@H](O)[C@@H](O)[C@H]2O)[C@H](C)Cl)N(C)C1 [CLI]
SPN 49619; CLI alone
  MIC ATB alone: 0.125 µg/mL
SPN 49619; antibiotic alone
  MIC ATB alone: 0.125 µg/mL
SPN 49619; with Example 1 @8 μg/ml
  MIC ATB combined with Example 1 @8 μg/ml: 0.063 µg/mL
SPN 49619; with Example 9 @4 μg/ml
  MIC ATB combined with Example 9 @4 μg/ml: 0.0039 µg/mL

## O=C(N[C@H](CO)[C@H](O)c1ccc([N+](=O)[O-])cc1)C(Cl)Cl [CM]
SPN 49619; antibiotic alone
  MIC ATB alone: 4 µg/mL
SPN 49619; with Example 1 @8 μg/ml
  MIC ATB combined with Example 1 @8 μg/ml: 4 µg/mL
SPN 49619; with Example 1 at 8 μg/ml
  MIC ATB combined with Example 1 @8 μg/ml: 4 µg/mL
SPN 49619; with Example 7 at 8 μg/ml
  MIC ATB combined with Example 7 @8 μgml: 2 µg/mL
SPN 49619; with Example 11 at 8 μg/ml
  MIC ATB combined with Example 11 @8 μg/ml: 2 µg/mL
SPN 49619; with Example 13 at 8 μg/ml
  MIC ATB combined with Example 13 @8 μg/ml: 2 µg/mL
SPN 49619; with Example 15 at 4 μg/ml
  MIC ATB combined with Example 15 @4 μgml: 2 µg/mL
SPN 49619; with Example 16 at 4 μg/ml
  MIC ATB combined with Example 16 @4 μg/ml: <=0.031 μg/mL
SAU 29213; antibiotic alone
  MIC ATB alone: 16 µg/mL
SAU 29213; with Example 1 @8 μg/ml
  MIC ATB combined with Example 1 @8 μg/ml: 16 µg/mL
SAU 29213; with Example 1 at 8 μg/ml
  MIC ATB combined with Example 1 @8 μg/ml: 16 µg/mL
SAU 29213; with Example 7 at 8 μg/ml
  MIC ATB combined with Example 7 @8 μgml: 4 µg/mL
SAU 29213; with Example 11 at 8 μg/ml
  MIC ATB combined with Example 11 @8 μg/ml: <=0.031 μg/mL
SAU 29213; with Example 13 at 8 μg/ml
  MIC ATB combined with Example 13 @8 μg/ml: 4 µg/mL
SAU 29213; with Example 15 at 4 μg/ml
  MIC ATB combined with Example 15 @4 μgml: 0.063 µg/mL
ECO UFR39; antibiotic alone
  MIC ATB alone: 64 µg/mL
ECO UFR39; with Example 1 @8 μg/ml
  MIC ATB combined with Example 1 @8 μg/ml: <0.031 µg/mL
ECO UFR39; with Example 1 at 8 μg/ml
  MIC ATB combined with Example 1 @8 μg/ml: <0.031 µg/mL
ECO UFR39; with Example 7 at 8 μg/ml
  MIC ATB combined with Example 7 @8 μgml: <0.031 µg/mL
ECO UFR39; with Example 13 at 8 μg/ml
  MIC ATB combined with Example 13 @8 μg/ml: <=0.031 μg/mL
ECO 190317; antibiotic alone
  MIC ATB alone: 8 µg/mL
ECO 190317; with Example 1 @8 μg/ml
  MIC ATB combined with Example 1 @8 μg/ml: <0.031 µg/mL
ECO 190317; with Example 1 at 8 μg/ml
  MIC ATB combined with Example 1 @8 μg/ml: <0.031 µg/mL
ECO 190317; with Example 7 at 8 μg/ml
  MIC ATB combined with Example 7 @8 μgml: <0.031 µg/mL
ECO 190317; with Example 13 at 8 μg/ml
  MIC ATB combined with Example 13 @8 μg/ml: <0.031 µg/mL
PAE 105250; with Example 12 at 8 μg/ml
  MIC ATB combined with Example 12 @8 μg/ml: >32 µg/mL
PAE 105250; with Example 14 at 8 μg/ml
  MIC ATB combined with Example 14 @8 μg/ml: >32 µg/mL
PAE 105250; with Example 16 at 4 μg/ml
  MIC ATB combined with Example 16 @4 μg/ml: >32 µg/mL
PAE UFR90; antibiotic alone
  MIC ATB alone: >1024 µg/mL
PAE UFR90; with Example 1 @8 μg/ml
  MIC ATB combined with Example 1 @8 μg/ml: <0.031 µg/mL
PAE UFR90; with Example 1 at 8 μg/ml
  MIC ATB combined with Example 1 @8 μg/ml: <0.031 µg/mL
PAE UFR90; with Example 12 at 8 μg/ml
  MIC ATB combined with Example 12 @8 μg/ml: >32 µg/mL
PAE UFR90; with Example 14 at 8 μg/ml
  MIC ATB combined with Example 14 @8 μg/ml: >32 µg/mL
PAE UFR90; with Example 16 at 4 μg/ml
  MIC ATB combined with Example 16 @4 μg/ml: >32 µg/mL
PAE UFR48; antibiotic alone
  MIC ATB alone: 512 µg/mL
PAE UFR48; with Example 1 @8 μg/ml
  MIC ATB combined with Example 1 @8 μg/ml: <0.031 µg/mL
PAE UFR48; with Example 1 at 8 μg/ml
  MIC ATB combined with Example 1 @8 μg/ml: <0.031 µg/mL
PAE UFR48; with Example 12 at 8 μg/ml
  MIC ATB combined with Example 12 @8 μg/ml: >32 µg/mL
PAE UFR48; with Example 14 at 8 μg/ml
  MIC ATB combined with Example 14 @8 μg/ml: >32 µg/mL
PAE UFR48; with Example 16 at 4 μg/ml
  MIC ATB combined with Example 16 @4 μg/ml: >32 µg/mL
ECL P99; antibiotic alone
  MIC ATB alone: 512 µg/mL
ECL P99; with Example 1 @8 μg/ml
  MIC ATB combined with Example 1 @8 μg/ml: <0.031 µg/mL
ECL P99; with Example 1 at 8 μg/ml
  MIC ATB combined with Example 1 @8 μg/ml: <0.031 µg/mL
